{
  "source": "patent US6455577B2",
  "about": "“Flavanone derivatives and composition for preventing or treating blood lipid level-related diseases comprising same” (Korea Research Institute of Bioscience and Biotechnology, priority 2000, dated 2002)",
  "key": {"HMG-CoA reductase": {"target": "T1, HMG-CoA reductase (Rattus norvegicus, UniProt P51639)", "T1 construct": "microsomes were separated from liver tissues to be used as an enzyme source; from tissue; host or cells: liver microsomes of fed rats", "T1 sequence (P51639 1-887)": "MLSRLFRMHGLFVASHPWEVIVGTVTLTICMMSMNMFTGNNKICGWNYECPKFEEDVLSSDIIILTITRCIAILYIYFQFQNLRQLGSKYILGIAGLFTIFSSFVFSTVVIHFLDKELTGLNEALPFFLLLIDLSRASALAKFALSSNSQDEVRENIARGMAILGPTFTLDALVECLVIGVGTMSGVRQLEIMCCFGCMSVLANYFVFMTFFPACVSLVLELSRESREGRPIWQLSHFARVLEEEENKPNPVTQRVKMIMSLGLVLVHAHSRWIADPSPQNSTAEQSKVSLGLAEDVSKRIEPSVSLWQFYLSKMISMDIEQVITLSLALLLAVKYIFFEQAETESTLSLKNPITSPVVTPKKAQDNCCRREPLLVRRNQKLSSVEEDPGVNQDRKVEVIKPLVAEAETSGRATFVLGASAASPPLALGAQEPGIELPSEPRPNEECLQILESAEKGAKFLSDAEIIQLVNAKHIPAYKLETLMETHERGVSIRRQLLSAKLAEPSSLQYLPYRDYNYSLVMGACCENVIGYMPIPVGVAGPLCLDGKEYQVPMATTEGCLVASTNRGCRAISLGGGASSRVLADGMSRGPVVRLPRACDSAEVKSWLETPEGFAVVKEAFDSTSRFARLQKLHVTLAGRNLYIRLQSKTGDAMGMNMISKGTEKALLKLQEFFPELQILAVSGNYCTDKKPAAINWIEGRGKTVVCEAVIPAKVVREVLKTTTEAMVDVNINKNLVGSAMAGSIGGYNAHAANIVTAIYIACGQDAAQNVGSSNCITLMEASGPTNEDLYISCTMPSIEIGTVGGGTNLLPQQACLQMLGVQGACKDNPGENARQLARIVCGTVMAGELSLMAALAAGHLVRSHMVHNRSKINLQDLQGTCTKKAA", "assay": "HMG-CoA reductase activity in liver microsomes of fed rats", "type": "in vivo", "experimental": "To determine the effect of feeding NG5006 to rats on the activities of ACAT and HMG-CoA reductase, microsomes were separated from liver tissues to be used as an enzyme source.\n1 g each of the livers taken from each group of rats of Example 12 was homogenized in 5 ml of homogenization medium(0. 1 M KH2PO4, pH 7.4, 0.1 mM EDTA and 10 mM β-mercaptoethanol). The homogenate was centrifuged at 3,000×g for 10 min. at 4° C. and the supernatant thus obtained was centrifuged at 15,000×g for 15 min. at 4° C. to obtain a supernatant. The supernatant was put into an ultracentrifuge tube(Beckman) and centrifuged at 100,000×g for 1 hour at 4° C. to obtain microsomal pellets, which were then suspended in 3 ml of the homogenization medium and centrifuged at 100,000×g for 1 hour at 4° C. The pellets thus obtained were suspended in 1 ml of the homogenization medium. The protein concentration of the resulting suspension was determined by Lowry's method and then adjusted to 4 to 8 mg/ml. The resulting suspension was stored in a deep freezer(Biofreezer, Forma Scientific Inc.).\nThe activity of HMG-CoA reductase was determined by employing [^14C]HMG-CoA, in accordance with the method of Shapiro et al.(Biochemica et Biophysica Acta, 370, 369-377(1974)) as follows.\nThe enzyme in the supernatant containing the microsome obtained in (Step 1) was activated at 37° C. for 30 min. Added to a reaction tube were 20 μl of HMG-CoA reductase assay buffer(0.25M KH2PO4(pH 7.0), 8.75 mM EDTA, 25 mM DTT, 0.45 M KCl and 0.25 mg/ml BSA), 5 μl of 50 mM NADPH, 5 μl of [^14C]HMG-CoA(0.05μ Ci/tube, final conc. 120μM), and 10 μl of activated microsomal enzyme(0.03-0.04 mg), and the mixture was incubated at 37° C. for 30 min. […] A region having a Rf value ranging from 0.65 to 0.75 was removed by scraping with a disposable cover slips and assayed for radioactivity with 1450 Microbeta liquid scintillation counter(Wallac Co., Finland). Enzyme activities were calculated as picomoles mevalonic acid synthesized per min. per mg protein(pmoles/min/mg protein)."}, "[1]": {"system": "New Zealand White rabbits", "assay": "Fatty streak in the main artery of cholesterol-fed rabbits", "type": "in vivo, rabbit", "experimental": "22 three-month-old New Zealand White rabbits(Yeonam Horticulture and Animal Husbandry College, Korea) each weighing about 2.0 to 2.3 kg were bred under a condition of temperature 20±2° C., relative humidity 55±10%, and photoperiod 12L/12D. The rabbits were divided two groups of 6 rabbits and a group of 10 rabbits, and the rats of three groups were fed with three different diets, i.e., RC4 diet(Oriental Yeast Co., Japan) containing 1% cholesterol(Control group); 1% cholesterol plus 1 mg/kg Lovastatin® (Merck, U.S.A.)(Comparative group); and 1% cholesterol plus 0.1% NG5006, respectively. RC4 diet comprises 7.6% moisture, 22.8% crude protein, 2.8% crude fat, 8.8% crude ash, 14.4% crude cellulose and 43.6% soluble nitrogen-free substances. The rabbits were bred for 8 weeks while being allowed free access to the diets and water.\nThe rabbits bred in Step 1 were sacrificed and their chest were incised. The main artery was cut out therefrom in a length of about 5 cm downward from the site 1 cm above the aortic valve and the fat surrounding the main artery was removed. The main artery was incised in the middle along the longitudinal axis and fixed in 10% neutral buffered formalin for 24 hours, and then, pinned to a dish. The moist artery was photographed and, then, staining of fatty streak was carried out in accordance with the method of Esper, E., et al. (J. Lab. Clin. Med., 121, 103-110(1993)) as follows.\nA part of the incised main artery was washed three times by 2 min. with anhydrous propylene glycol and stained for 30 min. with a saturated solution of Oil Red O(ORO, Sigma Co.) dissolved in propylene glycol. Thereafter, the artery was washed twice by 3 min. with 85% propylene glycol to remove remaining staining solution and, then washed with physical saline. The artery was photographed and the photograph was traced. The area of stained legion(fatty streak legion) was determined with an image analyzer(LEICA, Q-600, Germany) and its proportion(%) to the total arterial area was calculated. The result is shown in Table V. The results were tested by student t-test by using Microsoft excel(version 7.0) program."}},
  "data": [
    {"smiles": "CCCCCCCCCCCCCCCCOc1cc(O)c2c(c1)OC(c1ccc(O)cc1)CC2=O", "note": "(centres unmarked) [NG5006, Naringenin 7-O-cetyl Ether]", "values": [
      {"measurement": "HMG-CoA activity lower than that of the control group", "setting": "HMG-CoA reductase; NG5006-fed rat group", "result": 27.5, "unit": "%"},
      {"measurement": "HMG-CoA reductase activity", "setting": "HMG-CoA reductase; liver microsomes of rats fed 1% cholesterol plus 0.02% naringenin or 0.036% NG5006, six weeks", "result": "81.6 ± 6.0", "unit": "pmole/min/mg protein"},
      {"measurement": "layer on the arterial endothelium (FIGS. 1B, 1C)", "setting": "[1]; 1% cholesterol plus 1 mg/kg Lovastatin or 0.1% NG5006", "result": "no or very thin layers of macrophage-lipid complex"},
      {"measurement": "formation of fatty streak compared to the control group, in words", "setting": "[1]; 1% cholesterol plus 1 mg/kg Lovastatin or 0.1% NG5006, 8 weeks", "result": "significantly inhibit the formation of fatty streak"},
      {"measurement": "Fatty Streak lesion (proportion of total arterial area)", "setting": "[1]; 1% cholesterol plus 1 mg/kg Lovastatin or 0.1% NG5006, 8 weeks, Oil Red O staining", "result": "12.3 ± 6.2", "unit": "%"}
    ]}
  ]
}
